Reference: US20180282331A1, “7-Oxo -6-(sulfooxy)- 1,6-diazabicyclo [3.2.1] octane containing compounds and their use in treatment of bacterial infections (changed by PCT to: 7-OXO -6-(SULFOOXY)- 1,6-DIAZABICYCLO [3.2.1] OCTANE CONTAINING COMPOUNDS AND THEIR USE IN TREATMENT OF BACTERIAL INFECTIONS” (WOCKHARDT LIMITED, priority 2015, published 2018)
Where two headings read alike, the source gives them in different places.

Key:
Assay in all cases: MIC, agar dilution (MHA), compound alone
Type in all cases: cell-based
[1] = test system: K. pneumoniae H525; details: K. pneumoniae H525, compound alone, MHA, 35° C., 18 hours
Protocol: (§1) The biological activity of representative compounds according to the invention against various bacterial strains was investigated. The Minimum Inhibitory Concentration (MIC) determination for the combinations was carried out in Muller Hinton Agar (MHA) (BD, USA) according to Clinical and Laboratory Standards Institute (CLSI) recommendations, (Clinical and Laboratory Standards Institute (CLSI), Performance Standards for Antimicrobial Susceptibility Testing, 20th Informational Supplement, M 100-S20, Volume 30, No. 1, 2010). In short, the test strains were adjusted to deliver about 10^4 CFU per spot with a multipoint inoculator (Applied Quality Services, UK). The plates were poured with MHA containing doubling concentration range of representative compounds according to present invention. The plates were inoculated and were incubated at 35° C. for 18 hours. […] The Table 5 depicts the antibacterial activity profile of compounds according to present invention against various multidrug resistant bacterial strains.

[2] = test system: K. pneumoniae ATCC 700603; details: K. pneumoniae ATCC 700603, compound alone, MHA, 35° C., 18 hours
Protocol: as §1

[3] = test system: K. pneumoniae H521; details: K. pneumoniae H521, compound alone, MHA, 35° C., 18 hours
Protocol: as §1

[4] = test system: E. coli NCTC 13353; details: E. coli NCTC 13353, compound alone, MHA, 35° C., 18 hours
Protocol: as §1

[5] = test system: E. coli NCTC 13352; details: E. coli NCTC 13352, compound alone, MHA, 35° C., 18 hours
Protocol: as §1

[6] = test system: E. coli 7 MP; details: E. coli 7 MP, compound alone, MHA, 35° C., 18 hours
Protocol: as §1

[7] = test system: E. coli M 50; details: E. coli M 50, compound alone, MHA, 35° C., 18 hours
Protocol: as §1

[8] = Klebsiella pneumoniae, read-out: MIC
[9] = Klebsiella pneumoniae, ATCC700603, read-out: MIC
[10] = Escherichia coli, NCTC13353, read-out: MIC
[11] = Escherichia coli, NCTC13352, read-out: MIC
[12] = Escherichia coli, read-out: MIC
[13] = Escherichia coli, M50, read-out: MIC

Compound	MIC [1, 8]	MIC [2, 9]	MIC [3, 8]	MIC [4, 10]	MIC [5, 11]	MIC [6, 12]	MIC [7, 13]	MIC [1]	MIC [2]	MIC [3]	MIC [4]	MIC [5]	MIC [6]	MIC [7]
CO/N=C(\C(=O)N[C@@H]1C(=O)N2C(C(=O)[O-])=C(C[N+]3(C)CCCC3)CS[C@H]12)c1csc(N)n1 [Cefepime, reference compound]	32 µg/mL	0.5 µg/mL	32 µg/mL	32 µg/mL	4 µg/mL	16 µg/mL	> 32 µg/mL							
O=C(Cn1ccnc1)NNC(=O)[C@@H]1CC[C@@H]2CN1C(=O)N2OS(=O)(=O)O.[Na] [Example 2, Sodium salt of (2S,5R)-N′-(1H-imidazol-1-ylacetyl)-7-oxo-6-(sulfooxy)-1,6-diazabicyclo[3.2.1]octane-2-carbohydrazide]								1 µg/mL	>32 µg/mL	1 µg/mL	0.25 µg/mL	0.5 µg/mL	1 µg/mL	0.5 µg/mL
O=C(Cn1cccn1)NNC(=O)[C@@H]1CC[C@@H]2CN1C(=O)N2OS(=O)(=O)[O-].[Na+] [Example 11]	> 32 µg/mL	> 32 µg/mL	32 µg/mL	1 µg/mL	1 µg/mL	4 µg/mL	1 µg/mL							
CCOC(=O)Cc1nnnn1CC(=O)NNC(=O)[C@@H]1CC[C@@H]2CN1C(=O)N2OS(=O)(=O)[O-].[Na+] [Example 12]	4 µg/mL	> 32 µg/mL	4 µg/mL	1 µg/mL	0.5 µg/mL	2 µg/mL	2 µg/mL							
CCOC(=O)Cc1nnn(CC(=O)NNC(=O)[C@@H]2CC[C@@H]3CN2C(=O)N3OS(=O)(=O)[O-])n1.[Na+] [Example 13]	32 µg/mL	> 32 µg/mL	32 µg/mL	1 µg/mL	1 µg/mL	2 µg/mL	2 µg/mL							
NC(=O)Cc1nnn(CC(=O)NNC(=O)[C@@H]2CC[C@@H]3CN2C(=O)N3OS(=O)(=O)[O-])n1.[Na+] [Example 14]	4 µg/mL	> 32 µg/mL	4 µg/mL	1 µg/mL	1 µg/mL	1 µg/mL	0.5 µg/mL							
NC(=O)Cc1nnnn1CC(=O)NNC(=O)[C@@H]1CC[C@@H]2CN1C(=O)N2OS(=O)(=O)[O-].[Na+] [Example 15]	2 µg/mL	> 32 µg/mL	2 µg/mL	0.5 µg/mL	0.5 µg/mL	1 µg/mL	0.5 µg/mL							

Second part, led by results:

MIC [1, 8]	MIC [2, 9]	MIC [3, 8]	MIC [4, 10]	MIC [5, 11]	MIC [6, 12]	MIC [7, 13]	Compound	MIC [1]	MIC [2]	MIC [3]	MIC [4]	MIC [5]	MIC [6]	MIC [7]
1 µg/mL	> 32 µg/mL	1 µg/mL	0.5 µg/mL	0.5 µg/mL	1 µg/mL	0.5 µg/mL	O=C(Cn1ncnn1)NNC(=O)[C@@H]1CC[C@@H]2CN1C(=O)N2OS(=O)(=O)[O-].[Na+] [Example 4]							
2 µg/mL	> 32 µg/mL	2 µg/mL	0.5 µg/mL	0.5 µg/mL	2 µg/mL	1 µg/mL	CCOC(=O)c1nnnn1CC(=O)NNC(=O)[C@@H]1CC[C@@H]2CN1C(=O)N2OS(=O)(=O)[O-].[Na+] [Example 5]							
2 µg/mL	> 32 µg/mL	2 µg/mL	1 µg/mL	1 µg/mL	2 µg/mL	1 µg/mL	O=C(Cn1nccn1)NNC(=O)[C@@H]1CC[C@@H]2CN1C(=O)N2OS(=O)(=O)[O-].[Na+] [Example 6]							
1 µg/mL	> 32 µg/mL	1 µg/mL	0.5 µg/mL	0.5 µg/mL	1 µg/mL	0.5 µg/mL	O=C(Cn1ccnn1)NNC(=O)[C@@H]1CC[C@@H]2CN1C(=O)N2OS(=O)(=O)[O-].[Na+] [Example 7]							
1 µg/mL	> 32 µg/mL	1 µg/mL	0.5 µg/mL	0.5 µg/mL	2 µg/mL	0.5 µg/mL	O=C(Cn1cncn1)NNC(=O)[C@@H]1CC[C@@H]2CN1C(=O)N2OS(=O)(=O)[O-].[Na+] [Example 8]							
1 µg/mL	> 32 µg/mL	4 µg/mL	0.25 µg/mL	0.5 µg/mL	1 µg/mL	0.25 µg/mL	Cc1nnnn1CC(=O)NNC(=O)[C@@H]1CC[C@@H]2CN1C(=O)N2OS(=O)(=O)[O-].[Na+] [Example 9]							
